Laboratory results taken from patent publication US9441237B2, “Auxin receptors” (THE GOVERNORS OF THE UNIVERSITY OF ALBERTA, priority 2010, dated 2016).

Key:
deseeded pea pericarps [1] = test: Deseeded pea pericarp growth / fruit abortion after hormone application (split-pericarp); type: in vivo, Pisum sativum; conditions: hormone applied to deseeded ovaries
[2] = system: PsAFB6 transcript abundance in pericarp; test: Pea split-pericarp assay, hormone applied to deseeded pericarps, PsAFB6 transcript abundance by qRT-PCR; type: in vivo, Pisum sativum; conditions: deseeded 2 DAA pericarps, 50 μM hormone
Experimental: (§1) To examine the hormonal regulation of pericarp AFB mRNA levels, the pea split-pericarp assay was used (Ozga et al., 1992). Fruit at 2 DAA were split along the dorsal suture. Seeds were removed and pericarps were left for 12 hours prior to hormone application to reduce residual seed effects. […] For split-pod, no seed controls (SPNS), 30 μL of 0.1% aqueous Tween 80 was applied. For split-pod controls (SP), seeds were not removed after the dorsal suture was opened, but 30 μL of 0.1% aqueous Tween 80 was applied 12 hours after pericarp splitting. As a further control for the split-pericarp procedure, intact pods were also harvested at the appropriate times. All fruit subjected to split-pericarp treatments were covered with plastic to maintain humidity, and all manipulations were carried out while pericarps remained on the plant. Intact controls were harvested at the 0 hour and 12 hour treatment timing, while all split-pericarp treatments were harvested at 12, 14, 20, and 24 hours after pericarp splitting (0, 2, 8, and 12 hours after hormone treatment).
(§2) All transcript quantification was performed on a StepOnePlus sequence detector (Applied Biosystems). Reverse transcription and quantification was performed using TaqMan One-Step RT-PCR Master Mix (Applied Biosystems; final concentration 1×) and 200 ng of DNAse treated total RNA (final concentration 8 ng μL^−1) in duplicate in a final volume of 25 μL per well. The final concentration of forward and reverse primers was 300 nM each, and the final concentration of probe was 100 nM. Reverse transcription was carried out for 30 minutes at 48° C. DNA polymerase antibody was denatured at 95° C. for 10 minutes. Quantification was carried out for 40 cycles of the following program: denaturation at 95° C. for 15 seconds, primer annealing and extension at 60° C. for 1 minute. Probes were labelled at the 5′ end with FAM (6-carboxyfluorescein) and at the 3′ end with the MGB quencher (Applied Biosystems).
(§3) Relative transcript levels were calculated using the ΔCt method (Livak and Schmittgen, 2001) using the following formula, where X is an arbitrary value equal to or greater than the highest assayed Ct value and E is the reaction efficiency for the amplicon in question: Transcript abundance=(1+E)^X−Ct) (1)

deseeded pea pericarps [3] = conditions: hormone applied to deseeded pericarps, split-pericarp assay; literature (Reinecke et al. 1995, 1999; Ozga and Reinecke 1999; Johnstone et al. 2005); cited from earlier work
[4] = system: PsAFB2 transcript abundance in pericarp; test: Pea split-pericarp assay, hormone applied to deseeded pericarps, PsAFB2 transcript abundance by qRT-PCR; type: in vivo, Pisum sativum; conditions: deseeded 2 DAA pericarps, 50 μM hormone applied 12 h after deseeding, 2, 8 and 12 h after application
Experimental: as §1
as §2, with “DNA polymerase antibody was denatured at 95° C. for 10 minutes.” left out, “Probes were labelled at the 5′ end with FAM (6-carboxyfluorescein) and at the 3′ end with the MGB quencher (Applied Biosystems).” left out
as §3

[5] = throughout the time course (2 to 12 h after application)

SMILES	abortion of deseeded fruits (deseeded pea pericarps [1])	effect on pericarp PsAFB6 mRNA abundance ([2]; 8 hours to 12 hours after application)	deseeded pericarp growth (deseeded pea pericarps [3])	effect on steady-state PsAFB2 transcript abundance [4]	effect on pericarp PsAFB6 mRNA abundance [2, 5]	effect on pericarp PsAFB6 mRNA abundance ([2]; 2 hours after application)
O=C(O)Cc1c[nH]c2ccccc12 [IAA, indole-3-acetic acid]	nor does it prevent the abortion of deseeded fruits	increased to that observed in the SPNS pericarps	further decreases growth	did not significantly affect	–	–
C=C1C[C@]23C[C@@]1(O)CC[C@H]2[C@@]12C=C[C@H](O)[C@@](C)(C(=O)O1)[C@H]2[C@@H]3C(=O)O [GA3]	–	–	stimulate deseeded pericarp growth	did not significantly affect	no effect	–
C=C1C[C@]23C[C@@]1(O)CC[C@H]2[C@@]12CC[C@H](O)[C@@](C)(C(=O)O1)[C@H]2[C@@H]3C(=O)O [GA1]	–	–	stimulate deseeded pericarp growth	–	–	–
Cc1cccc2[nH]cc(CC(=O)O)c12 [4-Me-IAA]	–	–	capable of stimulating the expansion of deseeded pericarps, but not to the same extent as 4-Cl-IAA	–	–	–
O=C(O)Cc1c[nH]c2cccc(Cl)c12 [4-Cl-IAA, 4-chloroindole-3-acetic acid]	prevention of fruit abortion	–	stimulated pericarp growth	did not significantly affect	reduced PsAFB6 mRNA abundance to levels similar to those found in SP controls	initially reduced
